# Data as given in patent publication US20130017570A1, “METHOD FOR MONITORING STATE OF DIFFERENTIATION IN STEM CELL” (OLYMPUS CORPORATION, priority 2010, published 2013).
# System: Nanog gene expression in mouse ES cells constitutively expressing Nanog-Eluc
# Experiment: Luminescence imaging of Nanog-Eluc expression in ES cell colonies under FGF stimulus and FGF signal inhibitors
# Assay type: cell-based
# Details: FGF 10 ng/ml, medium without LIF, before inhibitor addition
# Source text: Mouse ES cells used in Example 1-2 were used, which is constitutively expressing Nanog-Eluc. The cells were differentiation-induced with FGF (Fibroblast Growth Factor), and then observed under condition with signal transduction inhibitor. FGF signal is a signal transduction which induces stem cell differentiation, and it has been reported that the stem cell returns from the differentiated state to the undifferentiated state by the action of an inhibitor (T. Kunath et al., Development 134, pp. 2895-2902, 2007). The preparation method of ES cells is in the same manner as in Example 1-2. […]
# D-luciferin (manufactured by Promega KK: final concentration of 500 μM) was added for luminescence observation, FGF (FGFβ human, PeproTech Inc.) was added so as to have a final concentration of 10 ng/ml, and then the mouse ES cells were observed using a luminescence microscope LV200 (manufactured by Olympus Corporation). As the luminescence observation conditions, the luminescence images of the mouse ES cells were taken under 55 min exposure at 1 hour intervals, thereby observing Nanog gene expression level. […]
# After the time-lapse observation, the captured images were saved, and numerical data was analyzed from the observation images using an image analysis software “AQUACOSMOS (manufactured by Hamamatsu Photonics K.K.)”, and the analyzed numerical data was shown as graph data. […]
substance,measurement,value
"FGF: Fibroblast Growth Factor (FGFβ human, PeproTech Inc.) used for differentiation induction","Nanog expression (luminescence intensity) when adding FGF, expression pattern C colonies",not seen
